Here are results for 30 compounds from EP2459551B1, “DIHYDROBENZOINDAZOLES” (Merck Sharp & Dohme B.V., priority 2009, dated 2011).

The experiment has as its target T1, human FSH receptor (Homo sapiens, UniProt P23945).
T1 sequence (P23945 18-695): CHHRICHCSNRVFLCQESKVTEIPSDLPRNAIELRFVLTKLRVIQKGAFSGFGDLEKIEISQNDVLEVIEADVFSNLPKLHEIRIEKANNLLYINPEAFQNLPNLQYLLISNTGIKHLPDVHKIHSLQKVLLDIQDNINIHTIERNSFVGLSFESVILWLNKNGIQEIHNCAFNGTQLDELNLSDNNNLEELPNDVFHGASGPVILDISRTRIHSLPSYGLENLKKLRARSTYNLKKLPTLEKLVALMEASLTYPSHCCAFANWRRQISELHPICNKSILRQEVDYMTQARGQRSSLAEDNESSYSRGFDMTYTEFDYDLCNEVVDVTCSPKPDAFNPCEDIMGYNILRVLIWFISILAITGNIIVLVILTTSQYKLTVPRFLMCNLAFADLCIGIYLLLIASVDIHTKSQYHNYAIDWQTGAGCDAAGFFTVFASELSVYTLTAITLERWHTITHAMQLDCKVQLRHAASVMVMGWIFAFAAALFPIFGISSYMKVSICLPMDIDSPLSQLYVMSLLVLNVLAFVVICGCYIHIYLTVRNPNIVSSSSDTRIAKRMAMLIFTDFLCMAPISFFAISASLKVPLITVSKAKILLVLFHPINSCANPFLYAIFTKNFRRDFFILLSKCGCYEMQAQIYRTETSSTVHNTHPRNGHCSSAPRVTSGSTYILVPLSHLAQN
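Note: CHO cells stably expressing human FSH receptor with CRE-driven firefly luciferase, luminescence read as counts per second after 4 h compound exposure in 1% DMSO.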

Experimental: Agonistic activity of compounds at the human FSH receptor expressed in CHO cells
Agonistic activity of the compounds at the human FSH receptor was determined in Chinese Hamster Ovary (CHO) cells stably transfected with the human FSH receptor and cotransfected with a cAMP responsive element (CRE)/promotor directing the expression of a firefly luciferase reporter gene. […] Cells (7,500 cells/well of a 384 well plate) were incubated in Dulbecco' minimal essential F12 modified medium (Invitrogen), supplemented with 1 µg/ml bovine insulin, 5 µg/ml human apotransferrin, 80 U/ml penicillin G and 80 µg/ml streptomycin with the test compounds (concentration between 0.0316 nM and 10.0 µM) in duplicate in a humidified atmosphere (95%) at 5-7% CO2 and 37°C. The final concentration of DMSO was 1%. After 4 hours of incubation, plates were allowed to adjust to room temperature for 1 hour. Then, Luclite (PerkinElmer) solution was added to the wells and cells were allowed to lyse for at least 1 hour at room temperature. Subsequently, luciferase activity was measured in a luminescence counter. The signal is expressed as counts per second (cps). The EC50 (concentration of the test compound that elicits half-maximal (50 %) luciferase stimulation compared to the compound's maximally attainable effect) and efficacy values (maximal effect of the test compound as percentage of the maximal effect of recombinant human FSH) of the compounds were determined using the software program MathIQ (version 2.0, ID Business Solutions Limited).

On to `C=CCc1cccc(-n2nc(C(=O)N(C)C(C)(C)C)c3c2-c2cc(OC(C)C)c(OC)cc2CC3)c1` [Example 7ca, 1-(3-allylphenyl)-N-tert-butyl-8-isopropoxy-7-methoxy-N-methyl-4,5-dihydro-1H-benzo[g]indazole-3-carboxamide], for which the EC50 fell in the range of 1 to 10 µM.

As for `COc1cc2c(cc1NC(=O)CN(C)C)-c1c(c(C(=O)N(C)C(C)(C)C)nn1-c1cccc(C)c1)CC2` [Example 12jc, N-tert-butyl-8-(2-(dimethylamino)acetamido)-7-methoxy-N-methyl-1-m-tolyl-4,5-dihydro-1H-benzo[g]indazole-3-carboxamide], the EC50 fell in the range of 1 to 10 µM. Next, `COc1cc2c(cc1OC)-c1c(c(C(=O)N(C)C(C)(C)C)nn1-c1ccc(F)cc1)CC2` [Example 1e, N-tert-butyl-1-(4-fluorophenyl)-7,8-dimethoxy-N-methyl-4,5-dihydro-1H-benzo[g]indazole-3-carboxamide]: 1 to 10 µM; `COc1cc2c(cc1NC(=O)c1cocn1)-c1c(c(C(=O)N(C)C(C)(C)C)nn1-c1cccc(C)c1)CC2` [Example 12g]: 1 to 10 µM; `COc1cc2c(cc1OC)-c1c(c(C(=O)N3CCCN(C(C)=O)CC3)nn1-c1ccc(F)cc1)CC2` [Example 1f]: 1 to 10 µM. Next, `COc1cc2c(cc1NS(C)(=O)=O)-c1c(c(C(=O)N(C)C(C)(C)C)nn1-c1cccc(C)c1)CC2` [Example 12h]: 1 to 10 µM; `CCc1ccc(-n2nc(C(=O)N(C)C(C)(C)C)c3c2-c2cc(OC(C)C)c(OC)cc2CC3)cc1` [Example 13cb, N-tert-butyl-1-(4-ethylphenyl)-8-isopropoxy-7-methoxy-N-methyl-4,5-dihydro-1H-benzo[g]lindazole-3-carboxamide]: 1 to 10 µM. In the case of `CCc1cccc(-n2nc(C(=O)N(C)C(C)(C)C)c3c2-c2cc(OC(C)C)c(OC)cc2CC3)c1` [Example 7cd, N-tert-butyl-1-(3-ethylphenyl)-8-isopropoxy-7-methoxy-N-methyl-4,5-dihydro-1H-benzo[g]indazole-3-carboxamide] it was 0.1 to 1 µM. The compound `COc1cc2c(cc1OC)-c1c(c(C(=O)N3CCCN(C(=O)C4CCC4)CC3)nn1-c1ccc(F)cc1)CC2` [Example 1g] had an EC50 of 0.1 to 1 µM. With `COc1cc2c(cc1OC(C)C)-c1c(c(C(=O)N(C)C(C)(C)C)nn1-c1nc3ccccc3s1)CC2` [Example 4d, 1-(benzo[d]thiazol-2-yl)-N-tert-butyl-8-isopropoxy-7-methoxy-N-methyl-4,5-dihydro-1H-benzo[g]indazole-3-carboxamide], the EC50 lay within 1 to 10 µM. In the case of `COc1cc2c(cc1OC(C)C)-c1c(c(C(=O)N(C)C(C)(C)C)nn1-c1ccc(C)cc1)CC2` [Example 13ca, N-tert-butyl-8-isopropoxy-7-methoxy-N-methyl-1-p-tolyl-4,5-dihydro-1H-benzo[g]indazole-3-carboxamide] it was 1 to 10 µM; in that of `COc1cc2c(cc1OC(C)C)-c1c(c(C(=O)N(C)C(C)(C)C)nn1-c1cccc(C)c1)CC2` [Example 8cd, N-tert-butyl-8-isopropoxy-7-methoxy-N-methyl-1-m-tolyl-4,5-dihydro-1H-benzo[g]indazole-3-carboxamide], 0.1 to 1 µM. Next, `COc1cc2c(cc1NC(=O)CN1CCOCC1)-c1c(c(C(=O)N(C)C(C)(C)C)nn1-c1cccc(C)c1)CC2` [Example 12jb, N-tert-butyl-7-methoxy-N-methyl-8-(2-morpholinoacetamido)-1-m-tolyl-4,5-dihydro-1H-benzo[g]indazole-3-carboxamide]: 1 to 10 µM; `C=Cc1ccccc1-n1nc(C(=O)N(C)C(C)(C)C)c2c1-c1cc(OC(C)C)c(OC)cc1CC2` [Example 9cc, N-tert-butyl-8-isopropoxy-7-methoxy-N-methyl-1-(2-vinylphenyl)-4,5-dihydro-1H-benzo[g]indazole-3-carboxamide]: 1 to 10 µM. `COc1cc2c(cc1OC(C)C)-c1c(c(C(=O)N(C)C(C)(C)C)nn1-c1ccccc1-c1ccoc1)CC2` [Example 9cd, N-tert-butyl-1-(2-(furan-3-yl)phenyl)-8-isopropoxy-7-methoxy-N-methyl-4,5-dihydro-1H-benzo[g]indazole-3-carboxamide] had an EC50 of 1 to 10 µM. Next, `COc1cc2c(cc1OC(C)C)-c1c(c(C(=O)N(C)C(C)(C)C)nn1-c1ccccc1Br)CC2` [Example 9ca, 1-(2-bromophenyl)-N-tert-butyl-8-isopropoxy-7-methoxy-N-methyl-4,5-dihydro-1H-benzo[g]indazole-3-carboxamide]: 0.1 to 1 µM.

`COc1cc2c(cc1-c1ncco1)-c1c(c(C(=O)N(C)C(C)(C)C)nn1-c1ccccc1Cl)CC2` [Example 11ga, N-tert-butyl-1-(2-chlorophenyl)-7-methoxy-N-methyl-8-(oxazol-2-yl)-4,5-dihydro-1H-benzo[g]lindazole-3-carboxamide]: the EC50 was in the range of 1 to 10 µM. Next, `COc1cc2c(cc1OC(C)C)-c1c(c(C(=O)N(C)C(C)(C)C)nn1-c1ccc(F)cc1)CC2` [Example 13cd, N-tert-butyl-1-(4-fluorophenyl)-8-isopropoxy-7-methoxy-N-methyl-4,5-dihydro-1H-benzo[g]indazole-3-carboxamide]: 0.1 to 1 µM; `COc1cc2c(cc1NC(=O)CN1CCN(C)CC1)-c1c(c(C(=O)N(C)C(C)(C)C)nn1-c1cccc(C)c1)CC2` [Example 12ja, N-tert-butyl-7-methoxy-N-methyl-8-(2-(4-methylpiperazin-1-yl)acetamido)-1-m-tolyl-4,5-dihydro-1H-benzo[g]indazole-3-carboxamide]: 1 to 10 µM.

`COc1ccc(-n2nc(C(=O)N(C)C(C)(C)C)c3c2-c2cc(OC(C)C)c(OC)cc2CC3)cc1` [Example 13cc, N-tert-butyl-8-isopropoxy-7-methoxy-1-(4-methoxyphenyl)-N-methyl-4,5-dihydro-1H-benzo[g]indazole-3-carboxamide] showed an EC50 of 1 to 10 µM.

Consider `COc1cc2c(cc1OC(C)C)-c1c(c(C(=O)N(C)C(C)(C)C)nn1-c1ccccc1F)CC2` [Example 10cb, N-tert-butyl-1-(2-fluorophenyl)-8-isopropoxy-7-methoxy-N-methyl-4,5-dihydro-1H-benzo[g]indazole-3-carboxamide], for which the EC50 lay in the range of 0.1 to 1 µM.

With `COc1cc2c(cc1OC(C)C)-c1c(c(C(=O)N(C)C(C)(C)C)nn1-c1ccc(Br)cc1)CC2` [Example 13cf, N-tert-butyl-1-(4-bromophenyl)-8-isopropoxy-7-methoxy-N-methyl-4,5-dihydro-1H-benzo[g]indazole-3-carboxamide], the EC50 lay within 1 to 10 µM. In the case of `COc1cc2c(cc1OC(C)C)-c1c(c(C(=O)N(C)C(C)(C)C)nn1-c1ccccc1OC)CC2` [Example 10cc, N-tert-butyl-8-isopropoxy-7-methoxy-1-(2-methoxyphenyl)-N-methyl-4,5-dihydro-1H-benzo[g]indazole-3-carboxamide] it was 1 to 10 µM. Consider `COc1cc2c(cc1OC)-c1c(c(C(=O)N3CCCN(C(C)=O)CC3)nn1-c1ccsc1)CC2` [Example 14e, 1-(4-(7,8-dimethoxy-1-(thiophen-3-yl)-4,5-dihydro-1H-benzo[g]indazole-3-carbonyl)-1,4-diazepan-1-yl)ethanone], for which the EC50 fell in the range of 1 to 10 µM. In the case of `COc1cc2c(cc1NC(=O)CN1CCC1)-c1c(c(C(=O)N(C)C(C)(C)C)nn1-c1cccc(C)c1)CC2` [Example 12jd, 8-(2-(azetidin-1-yl)acetamido)-N-tert-butyl-7-methoxy-N-methyl-1-m-tolyl-4,5-dihydro-1H-benzo[g]indazole-3-carboxamide], the EC50 is 1 to 10 µM. In the case of `C=Cc1cccc(-n2nc(C(=O)N(C)C(C)(C)C)c3c2-c2cc(OC(C)C)c(OC)cc2CC3)c1` [Example 7cc, N-tert-butyl-8-isopropoxy-7-methoxy-N-methyl-1-(3-vinylphenyl)-4,5-dihydro-1H-benzo[g]indazole-3-carboxamide] it was 0.1 to 1 µM; in that of `COc1cc2c(cc1OC(C)C)-c1c(c(C(=O)N(C)C(C)(C)C)nn1-c1cccc(C3CC3)c1)CC2` [Example 7cf, N-tert-butyl-1-(3-cyclopropylphenyl)-8-isopropoxy-7-methoxy-N-methyl-4,5-dihydro-1H-benzo[g]indazole-3-carboxamide], 0.1 to 1 µM; in that of `CC=Cc1ccccc1-n1nc(C(=O)N(C)C(C)(C)C)c2c1-c1cc(OC(C)C)c(OC)cc1CC2` [Example 9cb, 1-(2-(2-methylvinyl)-phenyl)-N-tert-butyl-8-isopropoxy-7-methoxy-N-methyl-4,5-dihydro-1H-benzo[g]indazole-3-carboxamide], 1 to 10 µM. `COc1cc2c(cc1OC(C)C)-c1c(c(C(=O)N(C)C(C)(C)C)nn1-c1ccccc1C)CC2` [Example 10ca, N-tert-butyl-8-isopropoxy-7-methoxy-N-methyl-1-o-tolyl-4,5-dihydro-1H-benzo[g]lindazole-3-carboxamide] registered an EC50 of 1 to 10 µM. In the case of `COc1cc2c(cc1OC(C)C)-c1c(c(C(=O)N(C)C(C)(C)C)nn1-c1cccnc1)CC2` [Example 6b, N-tert-butyl-8-isopropoxy-7-methoxy-N-methyl-1-(pyridin-3-yl)-4,5-dihydro-1H-benzo[g]indazole-3-carboxamide] it was 0.1 to 1 µM.

One may read the EC50 as the concentration needed to bring the measured effect to its halfway point.
